Converted amounts (≈) assume the structure as drawn. “And” between values parts separate entries of the source, which are not always exact repeats. Identical values can stand only once.
Legend:
[1] = tested on: Unfractionated heparin; experiment: aPTT clotting assay, UFH 0.4 U/mL in plasma (Example 10); assay type: biochemical; settings: unfractionated heparin 0.4 U/mL in plasma; aPTT clotting
Experimental: (§1) aPTT clotting Assay: Unfractionated heparin was mixed with plasma at a final concentration of 0.4 U/mL (or concentration which increases aPTT time to between 120 and 300 seconds). […] The ACL Elite Hemostasis analyzer (Beckman Coulter™) was used to add aPTT reagent (HemosIL SynthASil) to supplemented plasma. Clotting was initiated by addition of CaCl2 and time to clot was recorded.

[2] = tested on: UFH; experiment: FXa amidolytic assay (Example 10), UFH; settings: read-out: Heparin FXa uM EC50; UFH 0.03 units/mL; human antithrombin, bovine Factor Xa
[3] = Coagulation properties via ROTEM; settings: at fully efficacious doses
[4] = tested on: enoxaparin; experiment: In vivo neutralization of enoxaparin in the rat; settings: for neutralization of enoxaparin (aPTT and factor Xa assays, words): rat, enoxaparin 2 mg/kg IV; for in vivo efficacy versus LMWH by anti-factor Xa activity (summary): compared with protamine
Experimental: Compounds were tested for their ability to neutralize enoxaparin coagulation inhibition in rats. Male Sprague-Dawley rats were used in this study (Charles River Laboratories). They were ten-weeks-old at the start of the study and their weights ranged from 319-362 g. Enoxaparin (2 mg/kg) was administered by IV injection to groups of six rats. After 3 min, saline, protamine or a test compound was administered by IV injection. Blood was collected before dosing with enoxaparin, and at 1, 3, 10, 30 and 60 min after dosing with the standard and test compounds. All treatments were dosed in a volume of 1 mL/kg. Blood was collected via the orbital sinus from three rats per group. At each time point, 1 mL of blood was collected from each animal into a single tube. The blood was analyzed using an AMEX Destiny Plus Coagulation Analyzer for activated partial thromboplastin time (APTT) and anti-Factor Xa (low-molecular weight).

[5] = tested on: tinzaparin; experiment: FXa amidolytic assay (Example 10), tinzaparin; settings: read-out: Tinzap FXa EC50; tinzaparin 0.1 ug/ml; human antithrombin, bovine Factor Xa
[6] = tested on: isolated human erythrocytes; experiment: in vitro; assay type: cell-based
In short: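 Test agent was serially diluted two-fold over 0.48–1000 µg/ml and incubated for 1 h at 37 °C with shaking, using erythrocytes from pooled human blood diluted in Tris-buffered saline pH 7.4 (0.22% stock). Hemolysis was measured as supernatant absorbance at 405 nm. A four-parameter logistic equation gave EC50, and melittin served as the positive control.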

[7] = Cytotoxicity colorimetric assay, NIH/3T3; assay type: cell-based, mouse; settings: mouse, NIH/3T3 cells, one hour in serum-free media
In short: (§2)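 HepG2 cells (3×10^4/well, MEM + 10% FBS) and NIH/3T3 cells (2×10^4/well, DMEM + 10% BCS) were exposed to compound for 1 h in serum-free medium. Viability read by tetrazolium-to-formazan bioreduction after return to serum medium; EC50 from a four-parameter logistic fit.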

[8] = tested on: NIH/3T3 cells; experiment: Cytotoxicity colorimetric assay, NIH/3T3; assay type: cell-based, mouse; settings: for Cytotoxicity 3T3, percent printed in parentheses after the concentration: at the concentration given; for Cytotoxicity 3T3 EC50: one hour in serum-free media
In short: as §2

[9] = tested on: fondaparinux; experiment: In vivo neutralization of fondaparinux in the rat; settings: for reduction of Factor Xa (anti-factor Xa) levels after fondaparinux: fondaparinux 0.5 mg/kg IV, test agent 2 and 5 mg/kg IV
Experimental: Compounds were selected to test fondaparinux neutralization in vivo. Rats were pre-treated with fondaparinux administered by IV injection at 0.5 mg/kg. The rats were then treated with a single IV injection of saline, protamine or the PMX compound. Blood was collected via the orbital sinus from three rats per group at the following time points: pre-dose, 1, 3, 10, 30 and 60 min. Plasma samples were prepared for analysis of anti-factor Xa activity using an AMEX Destiny Plus Coagulation Analyzer.

[10] = tested on: HepG2 cells; experiment: Cytotoxicity colorimetric assay, HepG2; assay type: cell-based, human; set-up: Cytotoxicity HepG2, percent printed in parentheses after the concentration: concentration or dose not given beside the values; settings: for Cytotoxicity HepG2, percent printed in parentheses after the concentration: at the concentration given; for Cytotoxicity HepG2 EC50: one hour in serum-free media
In short: as §2

[11] = Cytotoxicity colorimetric assay, HepG2; assay type: cell-based, human; set-up: Cytotoxicity HepG2, percent printed in parentheses after the concentration: concentration or dose not given beside the values; settings: human, HepG2 cells, one hour in serum-free media
In short: as §2

[12] = tested on: enoxaparin; experiment: FXa amidolytic assay (Example 10), enoxaparin; settings: read-out: Enox FXa EC50; enoxaparin 0.1 ug/ml; human antithrombin, bovine Factor Xa
[13] = tested on: fondaparinux; experiment: FXa amidolytic assay (Example 10), fondaparinux; settings: for EC50: read-out: Fondap FXa EC50, fondaparinux 0.02 μg/mL, human antithrombin, bovine Factor Xa
[14] = tested on: fondaparinux (FONDAPX); experiment: FXa chromogenic assay (absence of plasma), fondaparinux; settings: fondaparinux 0.02 μg/mL, absence of plasma
[15] = tested on: enoxaparin (ENOX); experiment: FXa chromogenic assay (absence of plasma), enoxaparin; settings: enoxaparin 0.1 μg/mL, absence of plasma
[16] = tested on: enoxaparin; experiment: FXa amidolytic assay in human plasma, enoxaparin; assay type: biochemical; settings: enoxaparin 10 μg/mL, at a concentration of about 50 μg/mL
[17] = tested on: unfractionated heparin (UFH); experiment: aPTT clotting assay, UFH 0.2 U/mL in plasma (Example 7); assay type: biochemical; settings: UFH 0.2 U/mL in plasma
Experimental: as §1, with “Assay.” for “Assay:”, “0.2 U/mL.” for “0.4 U/mL (or concentration which increases aPTT time to between 120 and 300 seconds).”

[18] = tested on: blood pressure; experiment: Hemodynamic responses in the anesthetized rat; assay type: in vivo; settings: for hemodynamic response profile: anesthetized rat, 8 or 16 mg/kg 10 minute IV infusion after heparin 50 U/kg; for hemodynamic liabilities (summary): rat, in vivo
From the text: As a key safety issue for cationic compounds is reduction in blood pressure shortly after administration. To address this hemodynamic issue, a medicinal chemistry strategy with literature precedence of introducing carboxylic acid functionality was applied to the salicylamide series of compounds. […] Surgically prepared animals were purchased from Charles River Laboratories, Raleigh, N.C. Animals were anesthetized on the day of experiment with isoflurane (1.8-4%). Blood pressure and heart rate data were collected on a Grass Polygraph recorder. The test articles, vehicle or protamine dosing preparations were administered once to each rat by a 10 minute intravenous infusion three minutes following a single intravenous injection of heparin (50 U/kg). Each animal received a dose volume of 2.0 mL/kg. Blood pressure was recorded prior to treatment for approximately 1 minute and immediately following heparin, immediately following vehicle, test articles or protamine and at 5, 15, 30, and 60 minutes following dosing. The doses of test agent were either 8 mg/kg or 16 mg/kg. The differences in hemodynamic effect at 16 mg/kg were especially profound (FIG. 5).

[19] = tested on: enoxaparin; experiment: Enoxaparin-extended bleeding times, rat tail transection model; assay type: in vivo; settings: for neutralization of prolonged bleeding times: rat, enoxaparin 2 mg/kg IV
Experimental: Studies have now been done to examine effects on extended bleeding times caused by enoxaparin treatment. Male Sprague Dawley rats (Charles River) were administered 2 mg/kg enoxaparin by IV injection in the tail vein, followed 3 minutes later by test agent (IV, tail vein) at 2 and 5 mg/kg doses. Tails were then rapidly transected and bleeding time onto an absorbant pad was determined. Enoxaparin alone (no antagonist) extends bleeding time from 11 to 24 seconds.

Row | EC50 [1] | EC50 [2] | EC50 [5] | EC50 [12] | EC50 [13] | Structure (SMILES) | coagulation properties via ROTEM [3] | neutralization of enoxaparin (aPTT and factor Xa assays, words) [4] | hemolysis and cytotoxicity (summary) [6] | EC50 at 1 h [7] [µg/mL] | Cytotoxicity 3T3, percent printed in parentheses after the concentration [8] [%] | Cytotoxicity 3T3 EC50 [8] [µg/mL] | reduction of Factor Xa (anti-factor Xa) levels after fondaparinux [9] | in vivo efficacy versus fondaparinux (summary) [9] | Cytotoxicity HepG2, percent printed in parentheses after the concentration [10] [%] | Cytotoxicity HepG2 EC50 [10] [µg/mL] | EC50 at 1 h [11] [µg/mL] | Potent LMWH-antagonists with superior anti-fondaparinux activity (summary) [13] | in vivo efficacy versus LMWH by anti-factor Xa activity (summary) [4] | hemodynamic response profile [18] | hemodynamic liabilities (summary) [18] | further results
1 | 2540 nM and 1780 nM | 0.245 µM | 108 nM and 150 nM | 101 nM and 140 nM | 90 nM and 154 nM | COc1ccc(NC(=O)[C@H](CCCNC(=N)N)NC(=O)c2cc(NC(=O)[C@H](CCCNC(=N)N)NC(=O)c3cc(NC(=O)[C@H](CCCNC(=N)N)NC(=O)c4cc(NC(=O)[C@@H](N)CCCNC(=N)N)ccc4OC)ccc3OC)ccc2OCC(=O)O)cc1C(=O)N[C@@H](Cc1c[nH]c2ccccc12)C(N)=O [Compound 311] | normal coagulation properties at fully efficacious doses | marginally more efficacious than the 3-Arg derivative | non-hemolytic and low cytotoxicity | 1000 (≈ 681 µM) | 50 | >1000 | markedly reduced | in vivo efficacy versus fondaparinux | 50 | >1000 | 1000 (≈ 681 µM) | superior anti-fondaparinux activity |  |  |  | 
2 |  |  |  |  |  | COc1ccc(NC(=O)[C@@H](CCCNC(=N)N)NC(=O)c2cc(NC(=O)[C@@H](CCCNC(=N)N)NC(=O)c3cc(NC(=O)[C@@H](CCCNC(=N)N)NC(=O)c4cc(NC(=O)[C@@H](C)N)ccc4OC)ccc3OC)ccc2OC)cc1C(N)=O [Compound 16] |  |  |  |  |  |  |  |  |  |  |  |  |  |  |  | FONDAPX (FXa) EC50 [14]: 1.22 µg/mL; ENOX (FXa) EC50 [15]: 0.32 µg/mL; percent of the anticoagulant effect of enoxaparin inhibited (FXa amidolytic) [16]: about 20%; UFH (aPTT) EC50 [17]: 2.41 µg/mL
3 | 2440 nM and 1840 nM and 3480 nM | 0.21 µM and 0.247 µM | 122 nM and 151 nM and 121 nM | 122 nM and 162 nM and 164 nM | 214 nM and 265 nM and 368 nM | COc1ccc(NC(=O)[C@H](CCCCN)NC(=O)c2cc(NC(=O)[C@H](CCCCN)NC(=O)c3cc(NC(=O)[C@H](CCCCN)NC(=O)c4cc(NC(=O)[C@@H](N)CCCCN)ccc4OC)ccc3OC)ccc2OC)cc1C(=O)N[C@@H](Cc1c[nH]c2ccccc12)C(=O)O [Compound 266] | normal coagulation properties at fully efficacious doses | completely neutralizes enoxaparin within minutes | non-hemolytic and low cytotoxicity | 838 (≈ 638 µM) |  | 848 | effective at the higher 5 mg/kg dose |  |  | >1000 | 534 (≈ 407 µM) | superior anti-fondaparinux activity | superior to protamine | superior to protamine | reduced hemodynamic liabilities | EC50 ([6]; Homo sapiens, Erythrocyte, 1 h, human RBC, 1 hour at 37° C., read-out: Hemolysis EC50): > 1000 µg/mL; neutralization of prolonged bleeding times ([19]; test agent 5 mg/kg IV): incomplete neutralization
4 |  | 0.343 µM |  | 186 nM |  | COc1ccc(NC(=O)[C@@H](CCCNC(=N)N)NC(=O)c2cc(NC(=O)[C@@H](CCCNC(=N)N)NC(=O)c3cc(NC(=O)[C@@H](CCCNC(=N)N)NC(=O)c4cc(NC(=O)[C@H](N)CCCNC(=N)N)ccc4OC)ccc3OC)ccc2OCC(=O)O)cc1C(=O)N[C@H](Cc1c[nH]c2ccccc12)C(N)=O [Compound 305] | normal coagulation properties at fully efficacious doses | marginally more efficacious than the 3-Arg derivative | non-hemolytic and low cytotoxicity | 1000 (≈ 681 µM) | 50 | >1000 | effective in reducing Factor Xa activity | in vivo efficacy versus fondaparinux | 50 | >1000 | 1000 (≈ 681 µM) | superior anti-fondaparinux activity | superior to protamine | superior to protamine | reduced hemodynamic liabilities | in vivo efficacy versus LMWH by bleeding time (summary) ([19]; compared with protamine): superior to protamine; neutralization of prolonged bleeding times ([19]; test agent 2 mg/kg IV): completely neutralized
5 |  |  |  |  |  | COc1cc(OC)c(C(=O)N[C@H]2CC[C@H](NC(=O)c3cc(C(=O)NCCN(C)C)c(OCCCCCNC(=N)N)cc3OCCCCCNC(=N)N)CC2)cc1C(=O)N[C@H]1CC[C@H](NC(=O)c2cc(C(=O)NCCN(C)C)c(OCCCCCNC(=N)N)cc2OCCCCCNC(=N)N)CC1 [Compound B] | normal coagulation properties at fully efficacious doses |  | non-hemolytic and low cytotoxicity |  |  |  | lack of effectiveness |  |  |  |  | superior anti-fondaparinux activity | superior to protamine |  | reduced hemodynamic liabilities | neutralization of prolonged bleeding times ([19]; test agent 5 mg/kg IV): not completely reverse
